# Experimental data published in patent US11542233B2, “Compounds, compositions and methods of use” (Aquinnah Pharmaceuticals, Inc., priority 2016, dated 2023).
# System: TDP-43 aggregation in PC12 cells stably expressing GFP-tagged mutant TDP-43 (TDP-43^Q33IK::eGFP)
# Experiment: In vitro efficacy assay: inhibition of TDP-43 inclusions, concentration-response, fluorescence microscopy
# Assay type: cell-based
# Details: 1 hour pre-treatment, 15 μM sodium arsenite for 23 hours, 10-point dose response curve
# Method: Exemplary compounds of the invention were evaluated for efficacy in inhibiting TDP-43 inclusions using a concentration-response assay. Briefly, PC12 cells stably expressing a GFP-tagged mutant form of TDP-43 (TDP-43^Q33IK::eGFP) were pre-treated for 1 hour with exemplary compounds and stressed with 15 μM sodium arsenite for 23 hours to induce TDP-43 aggregation. The inhibitory effect on TDP-43 aggregation was measured using fluorescence microscopy. The ratio of cells with TDP-43 aggregates was calculated based on the total number of cells with detectable GFP expression. In the table, “A” indicates an IC50 of less than 100 nM, “B” indicates an IC50 range from 100 nM to 500 nM; “C” indicates an IC50 range from 500 nM to 2 μM; and “D” indicates an IC50 greater than 2 μM.
# [1] = Rattus norvegicus, PC-12, PC12 cells
Structure (SMILES),IC50 [1],IC50 (PC12 cells)
"CCN(C(=O)c1cc2ccccc2[nH]1)[C@H]1CCC[C@@H](N[C@H](c2cncnc2)C(F)(F)F)C1 (single isomer, unassigned) [Compound 412]",0.1 to 0.5 µM,–
"CCN(C(=O)c1cc2ccccc2[nH]1)[C@H]1CCC[C@@H](N[C@@H](c2cncnc2)C(F)(F)F)C1 (single isomer, unassigned) [Compound 413]",0.5 to 2 µM,–
"CCN(C(=O)c1cc2ncccc2[nH]1)[C@H]1CCC[C@@H](N[C@H](c2ccccc2)C(F)(F)F)C1 (single isomer, unassigned) [Compound 416]",0.5 to 2 µM,–
"CCN(C(=O)c1cc2ncccc2[nH]1)[C@H]1CCC[C@@H](N[C@@H](c2ccccc2)C(F)(F)F)C1 (single isomer, unassigned) [Compound 417]",0.1 to 0.5 µM,–
"CCN(C(=O)c1cc2ccccc2[nH]1)[C@H]1CCC[C@@H](NCc2ccccc2)C1 [Compound 100, N-((1S,3R)-3-(benzylamino)cyclohexyl)-N-ethyl-1H-indole-2-carboxamide]",< 0.1 µM,–
CCN(C(=O)c1cc2ccccc2[nH]1)C1CCC[C@@H](NCc2ccccc2)C1 (some centres unmarked) [Compound 101],< 0.1 µM,–
CCN(C(=O)c1cc2ccccc2[nH]1)[C@H]1CCC[C@H](NCc2ccccc2)C1 [Compound 102],0.5 to 2 µM,–
CCN(C(=O)c1cc2ccccc2[nH]1)[C@@H]1CCC[C@H](NCc2ccccc2)C1 [Compound 103],0.5 to 2 µM,–
CCN(C(=O)c1cc2ccccc2[nH]1)[C@@H]1CCC[C@@H](NCc2ccccc2)C1 [Compound 104],0.5 to 2 µM,–
"CCN(C(=O)c1cc2ccccc2[nH]1)[C@H]1CCC[C@@H](N(C)Cc2ccccc2)C1 [Compound 105, N-((1S,3R)-3-(benzyl(methyl)amino)cyclohexyl)-N-ethyl-1H-indole-2-carboxamide]",0.1 to 0.5 µM,–
"CCN(C(=O)c1cc2ccccc2[nH]1)[C@H]1CCC[C@@H](NCc2cccc(F)c2)C1 [Compound 106, N-ethyl-N-((1S,3R)-3-((3-fluorobenzyl)amino)cyclohexyl)-1H-indole-2-carboxamide]",–,< 0.1 µM
"CCN(C(=O)c1cc2ccccc2[nH]1)[C@H]1CCC[C@H](NCc2cccc(F)c2)C1 [Compound 107, N-ethyl-N-((1S,3S)-3-((3-fluorobenzyl)amino)cyclohexyl)-1H-indole-2-carboxamide]",0.5 to 2 µM,–
CCN(C(=O)c1cc2ccccc2[nH]1)[C@H]1CCC[C@@H](NCc2cccnc2)C1 [Compound 108],0.1 to 0.5 µM,–
CCN(C(=O)c1cc2ccccc2[nH]1)[C@H]1CCC[C@H](NCc2cccnc2)C1 [Compound 109],0.5 to 2 µM,–
CCN(C(=O)c1cc2ccccc2[nH]1)C1CCC[C@H](NCc2ccc(F)cc2)C1 (some centres unmarked) [Compound 110],0.1 to 0.5 µM,–
CCN(C(=O)c1cc2ccccc2[nH]1)C1CCC[C@@H](NCc2ccc(F)cc2)C1 (some centres unmarked) [Compound 111],< 0.1 µM,–
CCN(C(=O)c1cc2ccccc2[nH]1)C1CCCC(NC2CCc3ccccc32)C1 (centres unmarked) [Compound 112],< 0.1 µM,–
CCN(C(=O)c1cc2ccccc2[nH]1)[C@@H]1CCC[C@@H](N[C@H]2CCc3ccccc32)C1 [Compound 113],0.5 to 2 µM,–
CCN(C(=O)c1cc2ccccc2[nH]1)[C@@H]1CCC[C@@H](N[C@@H]2CCc3ccccc32)C1 [Compound 114],> 2 µM,–
CCN(C(=O)c1cc2ccccc2[nH]1)[C@H]1CCC[C@@H](N2CCc3ccccc3C2)C1 [Compound 115],0.5 to 2 µM,–

Structure (SMILES),IC50 [1],IC50 (PC12 cells)
CCN(C(=O)c1cc2ccccc2[nH]1)[C@H]1CCC[C@H](N2CCc3ccccc3C2)C1 [Compound 116],0.5 to 2 µM,–
CCN(C(=O)c1cc2ccccc2[nH]1)[C@H]1CCC[C@@H](NCCC2CC2)C1 [Compound 117],< 0.1 µM,–
CCN(C(=O)c1cc2ccccc2[nH]1)[C@H]1CCC[C@@H](NCC2CCOCC2)C1 [Compound 118],0.1 to 0.5 µM,–
CCN(C(=O)c1cc2ccccc2[nH]1)[C@H]1CCC[C@H](NCC2CCOCC2)C1 [Compound 119],< 0.1 µM,–
CCN(C(=O)c1cc2ccccc2[nH]1)[C@H]1CCC[C@@H](N[C@H]2CCc3ccccc32)C1 [Compound 120],0.5 to 2 µM,–
CCN(C(=O)c1cc2ccccc2[nH]1)[C@H]1CCC[C@@H](N[C@@H]2CCc3ccccc32)C1 [Compound 121],> 2 µM,–
CCN(C(=O)c1cc2ccccc2[nH]1)[C@H]1CCC[C@@H](NCc2cccc(F)c2)C1 [Compound 122],–,> 2 µM
"CCN(C(=O)c1cc2ccccc2[nH]1)[C@H]1CCC[C@@H](NCc2ccc(F)cc2)C1 [Compound 123, N-ethyl-N-((1S,3R)-3-((4-fluorobenzyl)amino)cyclohexyl)-1H-indole-2-carboxamide]",< 0.1 µM,–
CCN(C(=O)c1cc2ccccc2[nH]1)[C@H]1CCC[C@@H](N[C@H]2CCc3cc(F)ccc32)C1 [Compound 124],< 0.1 µM,–
CCN(C(=O)c1cc2ccccc2[nH]1)[C@H]1CCC[C@@H](N[C@@H]2CCc3cc(F)ccc32)C1 [Compound 125],0.1 to 0.5 µM,–
CCN(C(=O)c1cc2ccccc2[nH]1)[C@H]1CCC[C@@H](NCc2ccncc2)C1 [Compound 126],0.1 to 0.5 µM,–
CCN(C(=O)c1cc2ccccc2[nH]1)[C@H]1CCC[C@@H](NCc2ccccn2)C1 [Compound 127],< 0.1 µM,–
CCN(C(=O)c1cc2ccccc2[nH]1)[C@H]1CCC[C@@H](NCc2ccc(OC)cc2)C1 [Compound 128],< 0.1 µM,–
CCN(C(=O)c1cc2c(OC)cccc2[nH]1)[C@H]1CCC[C@@H](NCc2ccccc2)C1 [Compound 129],< 0.1 µM,–
CCN(C(=O)c1cc2ccccc2[nH]1)[C@H]1CCC[C@@H](NCc2cncnc2)C1 [Compound 130],0.5 to 2 µM,–
CCN(C(=O)c1cc2ccccc2[nH]1)[C@H]1CCC[C@@H](NCc2cnc(C)nc2)C1 [Compound 131],0.1 to 0.5 µM,–
CCN(C(=O)c1cc2ccccc2[nH]1)[C@H]1CCC[C@@H](NCc2cnc(OC)nc2)C1 [Compound 132],< 0.1 µM,–
CCN(C(=O)c1cc2ccccc2[nH]1)[C@H]1CCC[C@@H](NCc2cnc(Cl)nc2)C1 [Compound 133],0.1 to 0.5 µM,–
CCN(C(=O)c1cc2ccccc2[nH]1)[C@H]1CCC[C@@H](NCc2cccc(Cl)c2)C1 [Compound 134],< 0.1 µM,–
CCN(C(=O)c1cc2ccccc2[nH]1)[C@H]1CCC[C@@H](NCc2ccc(Cl)cc2)C1 [Compound 135],< 0.1 µM,–

Structure (SMILES),IC50 [1],IC50 (PC12 cells)
CCN(C(=O)c1cc2ccccc2[nH]1)[C@H]1CCC[C@@H](NCc2ncccn2)C1 [Compound 136],0.1 to 0.5 µM,–
CCN(C(=O)c1cc2ccccc2[nH]1)[C@H]1CCC[C@@H](NCc2ccncn2)C1 [Compound 137],0.1 to 0.5 µM,–
"CCN(C(=O)c1cc2ncccc2[nH]1)[C@H]1CCC[C@@H](NCc2cccc(F)c2)C1 [Compound 150, N-ethyl-N-((1S,3R)-3-((3-fluorobenzyl)amino)cyclohexyl)-1H-pyrrolo[3,2-b]pyridine-2-carboxamide]",< 0.1 µM,–
CCN(C(=O)c1cc2ncccc2[nH]1)[C@H]1CCC[C@@H](NCc2ccccc2)C1 [Compound 151],< 0.1 µM,–
CCN(C(=O)c1cc2ncccc2[nH]1)[C@H]1CCC[C@@H](NCc2ccc(F)cc2)C1 [Compound 152],< 0.1 µM,–
"O=C(c1cc2ccccc2[nH]1)N(CC(F)(F)F)[C@H]1CCC[C@@H](NCc2cccc(F)c2)C1 [Compound 170, N-((1S,3R)-3-((3-fluorobenzyl)amino)cyclohexyl)-N-(2,2,2-trifluoroethyl)-1H-indole-2-carboxamide]",< 0.1 µM,–
O=C(c1cc2ccccc2[nH]1)N(CC(F)(F)F)[C@H]1CCC[C@@H](NCc2ccc(F)cc2)C1 [Compound 171],< 0.1 µM,–
"O=C(c1cc2ccccc2[nH]1)N(CC(F)(F)F)[C@H]1CCC[C@H](NCc2cccc(F)c2)C1 [Compound 172, N-((1S,3S)-3-((3-fluorobenzyl)amino)cyclohexyl)-N-(2,2,2-trifluoroethyl)-1H-indole-2-carboxamide]",0.5 to 2 µM,–
O=C(c1cc2ccccc2[nH]1)N(CC(F)(F)F)C1CCC[C@H](NCc2cccnc2)C1 (some centres unmarked) [Compound 174],> 2 µM,–
O=C(c1cc2ccccc2[nH]1)N(CC(F)(F)F)[C@H]1CCC[C@@H](NCc2cccnc2)C1 [Compound 175],< 0.1 µM,–
O=C(c1cc2ccccc2[nH]1)N(CC(F)(F)F)[C@H]1CCC[C@H](NCc2ccncc2)C1 [Compound 176],> 2 µM,–
O=C(c1cc2ccccc2[nH]1)N(CC(F)(F)F)[C@H]1CCC[C@@H](NCc2ccncc2)C1 [Compound 177],0.1 to 0.5 µM,–
O=C(c1cc2ccccc2[nH]1)N(CC(F)(F)F)[C@H]1CCC[C@H](NCc2ccccc2)C1 [Compound 178],0.5 to 2 µM,–
O=C(c1cc2ccccc2[nH]1)N(CC(F)(F)F)[C@H]1CCC[C@@H](NCc2ccccc2)C1 [Compound 179],< 0.1 µM,–
O=C(c1cc2ccccc2[nH]1)N(CC(F)(F)F)[C@H]1CCC[C@H](NCc2ccc(F)cc2)C1 [Compound 180],0.5 to 2 µM,–
O=C(c1cc2ccccc2[nH]1)N(CC(F)(F)F)[C@H]1CCC[C@H](NCC2CCOCC2)C1 [Compound 182],0.5 to 2 µM,–
O=C(c1cc2ccccc2[nH]1)N(CC(F)(F)F)[C@H]1CCC[C@@H](NCC2CCOCC2)C1 [Compound 183],> 2 µM,–
"CCN(C(=O)c1cc2ccccc2[nH]1)[C@H]1CCC[C@@H](NC(=O)c2ccccc2)C1 [Compound 200, N-((1S,3R)-3-benzamidocyclohexyl)-N-ethyl-1H-indole-2-carboxamide]",> 2 µM,–
"CCN(C(=O)c1cc2ccccc2[nH]1)[C@H]1COC[C@@H](NCc2ccccc2)C1 [Compound 300, N-((3R,5S)-5-(benzylamino)tetrahydro-2H-pyran-3-yl)-N-ethyl-1H-indole-2-carboxamide]",0.1 to 0.5 µM,–
